Target: T1, human mAChR M4 (Homo sapiens, UniProt P08173)
T1 construct: expressed in transfected cells; host or cells: CHO-K1 (American Type Culture Collection), stably expressing hM4 and Gqi5
T1 sequence (P08173 1-479): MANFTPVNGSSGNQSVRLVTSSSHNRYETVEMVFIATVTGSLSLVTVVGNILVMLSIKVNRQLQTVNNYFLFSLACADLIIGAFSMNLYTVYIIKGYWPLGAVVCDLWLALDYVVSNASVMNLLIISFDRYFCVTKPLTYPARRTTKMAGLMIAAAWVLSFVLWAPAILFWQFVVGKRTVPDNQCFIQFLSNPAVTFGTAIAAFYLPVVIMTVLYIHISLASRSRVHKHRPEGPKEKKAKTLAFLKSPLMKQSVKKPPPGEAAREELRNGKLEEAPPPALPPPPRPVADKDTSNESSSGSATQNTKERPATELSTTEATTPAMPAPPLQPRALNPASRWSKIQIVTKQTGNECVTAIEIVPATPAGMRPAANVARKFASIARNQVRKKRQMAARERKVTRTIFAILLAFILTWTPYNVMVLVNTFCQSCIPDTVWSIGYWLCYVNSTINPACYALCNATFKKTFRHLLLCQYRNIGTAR
Assay: mAChR M4 cell-based functional assay: calcium mobilization (Fluo-4, FDSS), potentiation of EC20 acetylcholine response in hM4-Gqi5 CHO-K1 cells
Design: Emax: dose or concentration left out as unconfirmed
Conditions: for Emax at 30 µM: CHO-K1, % ACh maximum at 30 μM; for Emax at 30 µM / EC50: human M4; for EC50: potentiation of EC20 acetylcholine response, calcium mobilization
Description: Human and rat M4 cDNAs, along with the chimeric G protein Gqi5, were transfected into Chinese hamster ovary (CHO-K1) cells purchased from the American Type Culture Collection using Lipofectamine2000. hM4-Gqi5 cells were grown in Ham's F-12 medium containing 10% heat-inactivated fetal bovine serum (FBS), 20 mM HEPES, 50 μg/mL G418 sulfate, and 500 μg/mL Hygromycin B. rM4-Gqi5 cells were grown in DMEM containing 10% heat-inactivated FBS, 20 mM HEPES, 400 μg/mL G418 sulfate, and 500 μg/mL Hygromycin B.
For high throughput measurement of agonist-evoked increases in intracellular calcium, CHO-K1 cells stably expressing muscarinic receptors were plated in growth medium lacking G418 and hygromycin at 15,000 cells/20 μL/well in Greiner 384-well black-walled, tissue culture (TC)-treated, clear-bottom plates (VWR). Cells were incubated overnight at 37° C. and 5% CO2. The next day, cells were washed using an ELX 405 (BioTek) with assay buffer; the final volume was then aspirated to 20 μL. Next, 20 μL of a […] of Fluo-4/acetoxymethyl ester (Invitrogen, Carlsbad, CA), prepared as a 2.3 mM stock in DMSO and mixed in a 1:1 ratio with 10% (w/v) Pluronic F-127 and diluted in assay buffer, was added to the wells and the cell plates were incubated for 50 min at 37° C. and 5% CO2. Dye was removed by washing with the ELX 405 and the final volume was aspirated to 20 μL. Compound master plates were formatted in an 11 point concentration-response curve (CRC) format (1:3 dilutions) in 100% DMSO with a starting concentration of 10 mM using a BRAVO liquid handler (Agilent). Test compound CRCs were then transferred to daughter plates (240 nL) using the Echo acoustic plate reformatter (Labcyte, Sunnyvale, CA) and then diluted into assay buffer (40 μL) to a 2× stock using a Thermo Fisher Combi (Thermo Fisher Scientific, Waltham, MA).
Calcium flux was measured using the Functional Drug Screening System (FDSS) 6000 or 7000 (Hamamatsu Corporation, Tokyo, Japan) as an increase in the fluorescent static ratio. Compounds were applied to cells (20 μL, 2X) using the automated system of the FDSS at 2-4 seconds into the protocol and the data were collected at 1 Hz. At 144 seconds, 10 μL of an EC20 concentration of the muscarinic receptor agonist acetylcholine was added (5×), followed by the addition of 12 μL of an […] concentration of acetylcholine at the 230 second time point (5×). Agonist activity was analyzed as a concentration-dependent increase in calcium mobilization upon compound addition. Positive allosteric modulator activity was analyzed as a concentration-dependent increase in the EC20 acetylcholine response. Antagonist activity was analyzed as a concentration-dependent decrease in the EC20 acetylcholine response. Concentration-response curves were generated using a four-parameter logistical equation in XLFit curve fitting software (IDBS, Bridgewater, NJ) for Excel (Microsoft, Redmond, WA) or Prism (GraphPad Software, Inc., San Diego, CA).
Compounds were synthesized as described above. Activity (EC50 and Emax) was determined in the mAChR M4 cell-based functional assay as described above and the data are shown in Table 4. The compound number corresponds to the compound numbers used in Tables 1-3.

Row | SMILES | Emax at 30 µM | EC50 | Emax (CHO-K1)
1 | Cc1nc2c(C)c(C)c(N3CCc4ncc(C(F)(F)F)cc4C3)nn2c(=O)c1F [Compound 1-18, 3-fluoro-2,8,9-trimethyl-7-(3-(trifluoromethyl)-7,8-dihydro-1,6-naphthyridin-6(5H)-yl)-4H-pyrimido[1,2-b]pyridazin-4-one] | 106% | 94 nM | –
2 | Cc1cc2ncc(N3CCOCC3)c(=O)n2nc1N1CCc2ncc(C(F)(F)F)cc2C1 [Compound 1-19, 8-Methyl-3-morpholino-7-(3-(trifluoromethyl)-7,8-dihydro-1,6-naphthyridin-6(5H)-yl)-4H-pyrimido[1,2-b]pyridazin-4-one] | 70% | 113 nM | –
3 | Cc1cc2ncc(C3=CCCC3)c(=O)n2nc1N1CCc2ncc(C(F)(F)F)cc2C1 [Compound 1-20, 3-(Cyclopent-1-en-1-yl)-8-methyl-7-(3-(trifluoromethyl)-7,8-dihydro-1,6-naphthyridin-6(5H)-yl)-4H-pyrimido[1,2-b]pyridazin-4-one] | 70% | 586 nM | –
4 | Cc1cc2ncc(-c3ccccc3)c(=O)n2nc1N1CCc2ncc(C(F)(F)F)cc2C1 [Compound 1-21, 8-methyl-3-phenyl-7-(3-(trifluoromethyl)-7,8-dihydro-1,6-naphthyridin-6(5H)-yl)-4H-pyrimido[1,2-b]pyridazin-4-one] | 75% | 136 nM | –
5 | C=Cc1cnc2cc(C)c(N3CCc4ncc(C(F)(F)F)cc4C3)nn2c1=O [Compound 1-22, 8-Methyl-7-(3-(trifluoromethyl)-7,8-dihydro-1,6-naphthyridin-6(5H)-yl)-3-vinyl-4H-pyrimido[1,2-b]pyridazin-4-one] | – | 246 nM | 73%
6 | Cc1cc2ncc(C3CCCC3)c(=O)n2nc1N1CCc2ncc(C(F)(F)F)cc2C1 [Compound 1-23, 3-Cyclopentyl-8-methyl-7-(3-(trifluoromethyl)-7,8-dihydro-1,6-naphthyridin-6(5H)-yl)-4H-pyrimido[1,2-b]pyridazin-4-one] | 75% | 363 nM | –
7 | CCc1cnc2cc(C)c(N3CCc4ncc(C(F)(F)F)cc4C3)nn2c1=O [Compound 1-24, 3-Ethyl-8-methyl-7-(3-(trifluoromethyl)-7,8-dihydro-1,6-naphthyridin-6(5H)-yl)-4H-pyrimido[1,2-b]pyridazin-4-one] | 75% | 309 nM | –
8 | Cc1cc2nc(C)c(C)c(=O)n2nc1N1CCc2ncc(C(F)(F)F)cc2C1 [Compound 1-25, 2,3,8-trimethyl-7-(3-(trifluoromethyl)-7,8-dihydro-1,6-naphthyridin-6(5H)-yl)-4H-pyrimido[1,2-b]pyridazin-4-one] | 81% | 254 nM | –
9 | Cc1cc2nc(C(F)F)cc(=O)n2nc1N1CCc2ncc(C(F)(F)F)cc2C1 [Compound 1-26, 2-(difluoromethyl)-8-methyl-7-(3-(trifluoromethyl)-7,8-dihydro-1,6-naphthyridin-6(5H)-yl)-4H-pyrimido[1,2-b]pyridazin-4-one] | 74% | 141 nM | –
10 | Cc1cc2nc(C3CC3)cc(=O)n2nc1N1CCc2ncc(C(F)(F)F)cc2C1 [Compound 1-27, 2-cyclopropyl-8-methyl-7-(3-(trifluoromethyl)-7,8-dihydro-1,6-naphthyridin-6(5H)-yl)-4H-pyrimido[1,2-b]pyridazin-4-one] | 76% | 38 nM | –
11 | Cc1cc2nc(C)c(Cl)c(=O)n2nc1N1CCc2ncc(C(F)(F)F)cc2C1 [Compound 1-28, 3-chloro-2,8-dimethyl-7-(3-(trifluoromethyl)-7,8-dihydro-1,6-naphthyridin-6(5H)-yl)-4H-pyrimido[1,2-b]pyridazin-4-one] | 86% | 40 nM | –
12 | Cc1cc(=O)n2nc(N3CCc4ncc(-c5ccnn5C)cc4C3)c(C)cc2n1 [Compound 1-29, 2,8-dimethyl-7-(3-(1-methyl-1H-pyrazol-5-yl)-7,8-dihydro-1,6-naphthyridin-6(5H)-yl)-4H-pyrimido[1,2-b]pyridazin-4-one] | 85% | 146 nM | –
13 | Cc1ccc(-c2cnc3c(c2)CN(c2nn4c(=O)cc(C)nc4cc2C)CC3)cn1 [Compound 1-30, 2,8-dimethyl-7-(3-(6-methylpyridin-3-yl)-7,8-dihydro-1,6-naphthyridin-6(5H)-yl)-4H-pyrimido[1,2-b]pyridazin-4-one] | 69% | 127 nM | –
14 | Cc1cc(=O)n2nc(N3CCc4ncc(-c5cnc(C)s5)cc4C3)c(C)cc2n1 [Compound 1-31, 2,8-dimethyl-7-(3-(2-methylthiazol-5-yl)-7,8-dihydro-1,6-naphthyridin-6(5H)-yl)-4H-pyrimido[1,2-b]pyridazin-4-one] | 83% | 104 nM | –
15 | Cc1cc(=O)n2nc(N3CCc4ncc(-c5cnn(C6CC6)c5)cc4C3)c(C)cc2n1 [Compound 1-32, 7-(3-(1-cyclopropyl-1H-pyrazol-4-yl)-7,8-dihydro-1,6-naphthyridin-6(5H)-yl)-2,8-dimethyl-4H-pyrimido[1,2-b]pyridazin-4-one] | 76% | 405 nM | –
16 | Cc1cc(=O)n2nc(N3CCc4ncc(C(F)(F)F)cc4C3)c(C)c(C)c2n1 [Compound 1-33, 2,8,9-trimethyl-7-(3-(trifluoromethyl)-7,8-dihydro-1,6-naphthyridin-6(5H)-yl)-4H-pyrimido[1,2-b]pyridazin-4-one] | 77% | 64 nM | –
17 | Cc1cc2nc(C(F)F)cc(=O)n2nc1N1CCc2ncc(-c3cn(C)nc3C)cc2C1 [Compound 1-34, 2-(difluoromethyl)-7-(3-(1,3-dimethyl-1H-pyrazol-4-yl)-7,8-dihydro-1,6-naphthyridin-6(5H)-yl)-8-methyl-4H-pyrimido[1,2-b]pyridazin-4-one] | 90% | 73 nM | –
18 | Cc1cc2nc(C(F)F)cc(=O)n2nc1N1CCc2ncc(-c3cnn(C)c3)cc2C1 [Compound 1-35, 2-(Difluoromethyl)-8-methyl-7-(3-(1-methyl-1H-pyrazol-4-yl)-7,8-dihydro-1,6-naphthyridin-6(5H)-yl)-4H-pyrimido[1,2-b]pyridazin-4-one] | 92% | 80 nM | –
19 | Cc1cc2nc(C(F)F)cc(=O)n2nc1N1CCc2ncc(-c3ccnn3C)cc2C1 [Compound 1-36, 2-(difluoromethyl)-8-methyl-7-(3-(1-methyl-1H-pyrazol-5-yl)-7,8-dihydro-1,6-naphthyridin-6(5H)-yl)-4H-pyrimido[1,2-b]pyridazin-4-one] | 96% | 76 nM | –
20 | Cc1cc2nccc(=O)n2nc1N1CCc2ncc(-c3ccn(C)c(=O)c3)cc2C1 [Compound 1-37, 8-methyl-7-(3-(1-methyl-2-oxo-1,2-dihydropyridin-4-yl)-7,8-dihydro-1,6-naphthyridin-6(5H)-yl)-4H-pyrimido[1,2-b]pyridazin-4-one] | 83% | 2530 nM | –
21 | COc1cc(-c2cnc3c(c2)CN(c2nn4c(=O)ccnc4cc2C)CC3)ccn1 [Compound 1-38, 7-(3-(2-methoxypyridin-4-yl)-7,8-dihydro-1,6-naphthyridin-6(5H)-yl)-8-methyl-4H-pyrimido[1,2-b]pyridazin-4-one] | 84% | 338 nM | –
